Measured values taken from US20250109165A1, “CYCLOPHILIN INHIBITORS AND USES THEREOF” (The Broad Institute, Inc., priority 2022, published 2025).
Several values for one entry are separate records, joined by “and”; a condition that tells them apart may be missing. Equal values may be shown once.

What was measured:
HeLa cells = assay: Fluorescence microscopy on HeLa cells; type: cell-based, human; settings: Cy5 labeled compound 6 μM
Procedure: Fluorescence microscopy on Hela cells. Into 96 well black, clear bottom TC treated plates, cells were seeded in Dulbecco's Modified Eagle Medium (DMEM) supplemented with 10% fetal bovine serum 24 hours prior at a density where wells were ˜80% confluent at time of experiment. Media was removed and cells were then stained with 50 μL of mixture containing Cy5 labeled compound (6 μM) in Kreb's ringer solution HEPES buffered pH 7.2 (KRB), for 1 hour at 37° C. Then, 50 μL Hoechst 33342 (8 μM) and Mitotracker Green FM (0.1 μM) in KRB was added directly to wells containing cells and incubated for 15 minutes at 37° C. Media was removed and cells were washed two times with 100 μL KRB. Cells were then kept adherent to the wells in 100 μL KRB for imaging. Fluorescence microscopy was conducted on an Opera Phenix Plus High-Content Screening System, using Alexa 488, Alexa 647, and Hoescht 33342 channels. Images were analyzed using Harmony 4.9.

[1] = system: mPTP opening in isolated mouse liver mitochondria; assay: Mitochondrial calcium retention capacity assay; type: cell-based; settings: 2 μM CsA, 10 μM B52-Cy5, 10 μM *B52-Cy5, 20 μM B53-Cy5, 20 μM *B53-Cy5; pulses of 60 μM CaCl2; compared to DMSO control
Procedure: Isolation of mouse liver mitochondria: All procedures used in animal studies were approved by the Institutional Animal Care and Use Committee at Massachusetts General Hospital. Female C57B1/6 J mice (Jackson Labs) age 10-12 weeks were anesthetized by isoflurane. The liver from one mouse was rinsed in ice-cold PBS, minced in ice-cold isolation buffer containing 0.28 M sucrose, 10 mM Hepes-KOH pH 7.2, 0.2 mM EDTA and 1% (w/v) BSA, gently homogenized with 4 strokes of a tight-fitting Teflon pestle at 1000 rpm, and then centrifuged for 10 minutes at 600 g at 4° C. The supernatant was recovered and centrifuged for 10 minutes at 8000 g at 4° C. The loose outer buffy coat was rinsed off and the pellet resuspended gently in isolation buffer and the spins were repeated. […] The suspension was kept on ice and all assays performed within 4-6 hours following isolation. Quality control was done with every preparation by adding 250 mcg mitochondria to 500 μl of assay buffer containing 137 mM KCl, 10 mM Hepes-KOH pH 7.2, 2.5 mM MgCl2, 5 mM each of glutamate and malate, and 3 mM KH2PO4. Sequential 150 μM ADP pulses were then delivered. Preparations with respiratory control ratio>6 (as assessed by the ratio of ADP-coupled state 3 respiration to state 4 respiration) were used for further experiments. Measurements were made in a custom-built fluorimeter using a cuvette with a Red Eye oxygen patch (Ocean Optics) and an optical probe that is connected to the fluorimeter.
Mitochondrial calcium retention capacity assays: 250 mcg of mouse liver mitochondria isolated as above were added to […] of assay buffer containing 125 mM KCl, 20 mM Hepes-KOH pH 7.2, 1 mM MgCl2, 5 mM each of glutamate and malate, and 3 mM KH2PO4. 0.5 μM Calcium Green-5N (Molecular Probes) was included to monitor extramitochondrial free Ca^2+. Fluorescence was continuously monitored in the custom-built fluorimeter described above, with excitation 470 nm and emission […]. Sequential 60 μM CaCl2) pulses were delivered until Ca^2+ uptake ceased and an abrupt release of previously taken up Ca^2+ was observed, consistent with mPTP opening. The calcium retention capacity ratio (CRC) was obtained by normalizing the number of Ca^2+ pulses that could be taken up in a given condition by that taken up under DMSO control conditions, as previously described^72.

CypD = molecular target: T1, CypD (Homo sapiens, UniProt P30405); assay: Chymotrypsin coupled prolyl-isomerase assay; type: biochemical
T1 construct: PPIF (UniProtKB Entry P30405: res 45-207); made in house; host or cells: E. coli BL21(DE3)
Procedure: (§1) IC50 values were calculated to be the value at which 50% inhibition was achieved on each compound's non-linear regression fitted curve.

cyclophilins [2] = assay: Prolyl-isomerase inhibition screen on cyclophilins and cyclophilin mutants; type: biochemical, human
Procedure: as §1

cyclophilins [3] = assay: Anisotropy binding assay of fluorescein-labeled macrocycles; design: species or system human; settings: 0.5 nM fluorescein-labeled macrocycle
Procedure: Final assay volume was 100 μL with 0.25% DMSO. Fluorescence anisotropy was then measured using a Tecan Spark® plate reader using 492 nm/523 nm excitation/emission settings.

CypE [4] = molecular target: T2, CypE (Homo sapiens, UniProt Q9UNP9); assay: Competition anisotropy (fluorescence polarization) binding assay with A26-Fl
T2 construct: PPIE (UniProtKB Entry Q9UNP9: res 131-301); host or cells: E. coli BL21(DE3)
Procedure: Competition anisotropy binding assay with A26-Fl: Adapted from previous work^54, into a flat-bottom black untreated 96 well plate (Corning), cyclophilin in assay buffer (25 mM HEPES pH 8.0, 100 mM NaCl, 0.01% Triton X-100) at a predetermined concentration from FIG. 27 was incubated with 0.5 nM A26-Fl for 10 minutes at room temperature. Competitor macrocycle was then added to each well and incubated for 24 hours. Final assay volume was 100 μL with 0.25% DMSO. Fluorescence anisotropy was then measured using a Tecan Spark® plate reader using 492 nm/523 nm excitation/emission settings. Raw fluorescence polarization data was normalized to protein+fluorescent probe and buffer+fluorescent probe and Ki values were calculated using one site-competitive binding equation with Prism 9, importing Kd values from A26-Fl (FIGS. 12A-12C).

CypE [5] = molecular target: T2, CypE; assay: Assessment of covalent modification by mass spectrometry; settings: after treatment with NaCNBH3
Procedure: Assessment of covalent modification of CypE and other cyclophilin proteins: Into PCR strip, CypE or other cyclophilin in assay buffer (25 mM HEPES pH 8.0, 100 mM NaCl, 0.01% Triton X-100) was incubated with compound for 1 hour at room temperature. Final concentrations were 20 μM CypE, 100 μM compound, 0.5% DMSO, at a final volume of 20 μL. For analysis of lysine-iminoboronate modification, samples were directly submitted to Harvard's Center for Mass Spectroscopy for LC-MS analysis. For amine-lysine modification, samples were treated with 5 μL of 125 mM sodium cyanoborohydride dissolved in 25 mM Ammonium bicarbonate solution (pH 8.0) and incubated for 4 hours at room temperature. For all other wild-type cyclophilins, protein was treated for 4 hours with C3A, followed by 16 hour treatment with NaCNBH3. Final [NaCNBH3]=25 mM. Samples were then submitted for LC-MS as described above.

CypE [6] = molecular target: T2, CypE; assay: Chymotrypsin coupled prolyl-isomerase assay; type: biochemical
Procedure: as §1

T2 sequence (Q9UNP9 131-301): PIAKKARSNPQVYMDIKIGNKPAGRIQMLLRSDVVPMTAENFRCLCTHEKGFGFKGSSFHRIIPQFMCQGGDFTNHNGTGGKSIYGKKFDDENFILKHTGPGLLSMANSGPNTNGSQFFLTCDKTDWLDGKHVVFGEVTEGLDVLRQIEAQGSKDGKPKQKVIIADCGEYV
T1 sequence (P30405 45-207): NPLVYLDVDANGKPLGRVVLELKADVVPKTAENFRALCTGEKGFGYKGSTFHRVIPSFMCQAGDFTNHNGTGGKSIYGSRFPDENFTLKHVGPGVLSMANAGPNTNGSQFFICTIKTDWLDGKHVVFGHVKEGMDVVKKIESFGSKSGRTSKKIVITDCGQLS

| binding to five non-prolyl isomerase active cyclophilins (PPIL2, PPIL3, PPIL4, PPIL6, SDCCAG-10) (cyclophilins [3]) | binding to prolyl-isomerase-active cyclophilins (in words) (cyclophilins [3]) | SMILES | mitochondrial localization (overlap with Mitotracker Green) (HeLa cells) | calcium retention capacity prior to mPTP opening [1] | also measured |
| --- | --- | --- | --- | --- | --- |
| – | – | C[N+]1=C(/C=C/C=C/C=C2\N(CCCCCC(=O)NCCNC(=O)[C@H]3CCNC(=O)/C=C/C(=O)N4CCC[C@@](Cc5ccccc5)(C4)C(=O)N[C@H](Cc4ccc(-c5ccc(CC(C(=O)O)C(=O)O)cc5)cc4)C(=O)NCc4ccccc4CC(=O)N3)c3ccccc3C2(C)C)C(C)(C)c2ccccc21 [*B52-Cy5] | poor mitochondrial localization and fluorescence | did not influence calcium retention capacity | CypD prolyl-isomerase inhibition (in words) (CypD): did not inhibit CypD; inhibition of cyclophilins tested (in words) (cyclophilins [2]): no substantial inhibition profile |
| – | – | C[N+]1=C(/C=C/C=C/C=C2\N(CCCCCC(=O)NCCNC(=O)[C@H]3CCNC(=O)/C=C/C(=O)N4CCC[C@@](Cc5ccccc5)(C4)C(=O)N[C@H](Cc4ccc(-c5ccc(C(CC(=O)O)CC(=O)O)cc5)cc4)C(=O)NCc4ccccc4CC(=O)N3)c3ccccc3C2(C)C)C(C)(C)c2ccccc21 [*B53-Cy5] | poor mitochondrial localization and fluorescence | did not influence calcium retention capacity | CypD prolyl-isomerase inhibition (in words) (CypD): did not inhibit CypD; inhibition of cyclophilins tested (in words) (cyclophilins [2]): no substantial inhibition profile |
| very weak or no binding | promiscuously binds | O=C1/C=C/C(=O)N2CCC[C@](Cc3ccccc3)(C2)C(=O)N[C@@H](Cc2ccco2)C(=O)NCc2ccccc2CC(=O)N[C@H](C(=O)NCCCOCCOCCOCCCNC(=O)c2ccc3c(c2)C(=O)OC32c3ccc(O)cc3Oc3cc(O)ccc32)CCN1 [Compound A26-Fl] | – | – | – |
| – | – | CN1/C(=C/C=C/C=C/C2=[N+](CCCCCC(=O)NCCNC(=O)[C@@H]3CCNC(=O)/C=C/C(=O)N4CCC[C@](Cc5ccccc5)(C4)C(=O)N[C@@H](Cc4ccc(-c5ccc(CC(C(=O)O)C(=O)O)cc5)cc4)C(=O)NCc4ccccc4CC(=O)N3)c3ccccc3C2(C)C)C(C)(C)c2ccccc21 [Compound B52-Cy5] | poor mitochondrial localization and fluorescence | increased calcium retention capacity | plasma membrane / mammalian cell permeability (HeLa cells): not observed; cyclophilin selectivity profile (in words) (cyclophilins [2]): retain the same selectivity profile |
| very weak or no binding | selective binding for CypD | O=C1/C=C/C(=O)N2CCC[C@](Cc3ccccc3)(C2)C(=O)N[C@@H](Cc2ccc(-c3ccc(CC(C(=O)O)C(=O)O)cc3)cc2)C(=O)NCc2ccccc2CC(=O)N[C@H](C(=O)NCCCOCCOCCOCCCNC(=O)c2ccc3c(c2)C(=O)OC32c3ccc(O)cc3Oc3cc(O)ccc32)CCN1 [Compound B52-Fl] | – | – | – |
| – | – | CN1/C(=C/C=C/C=C/C2=[N+](CCCCCC(=O)NCCNC(=O)[C@@H]3CCNC(=O)/C=C/C(=O)N4CCC[C@](Cc5ccccc5)(C4)C(=O)N[C@@H](Cc4ccc(-c5ccc(C(CC(=O)O)CC(=O)O)cc5)cc4)C(=O)NCc4ccccc4CC(=O)N3)c3ccccc3C2(C)C)C(C)(C)c2ccccc21 [Compound B53-Cy5] | poor mitochondrial localization and fluorescence | increased calcium retention capacity | plasma membrane / mammalian cell permeability (HeLa cells): not observed; cyclophilin selectivity profile (in words) (cyclophilins [2]): retain the same selectivity profile |
| very weak or no binding | selective binding for CypD | O=C(O)CC(CC(=O)O)c1ccc(-c2ccc(C[C@@H]3NC(=O)[C@]4(Cc5ccccc5)CCCN(C4)C(=O)/C=C/C(=O)NCC[C@@H](C(=O)NCCCOCCOCCOCCCNC(=O)c4ccc5c(c4)C(=O)OC54c5ccc(O)cc5Oc5cc(O)ccc54)NC(=O)Cc4ccccc4CNC3=O)cc2)cc1 [Compound B53-Fl] | – | – | – |
| – | – | NC(=O)[C@@H]1CCNC(=O)/C=C/C(=O)N2CCC[C@](Cc3ccccc3)(C2)C(=O)N[C@@H](Cc2ccc(-c3ccc(C=O)cc3)cc2)C(=O)NCc2ccccc2CC(=O)N1 [Compound C5A] | – | – | decrease in potency relative to C3A (CypE [4]; FP competition with A26-Fl against CypE): 16 fold; CypE binding in FP competition (in words) (CypE [4]; compared to C3A): attenuated inhibition of CypE; mass shift of covalent adduct with CypE (CypE [5]): 806 Da and 780 Da; CypE potency and selectivity in prolyl isomerase assay (in words) (CypE [6]): loss in CypE potency and promiscuous cyclophilin inhibition; IC50 (CypE [6]; wild-type CypE, read-out: IC50^CypE): 1 µM |
